Measurements published in US12102607B2, “C5aR inhibitors for use in the treatment of chemotherapy-induced iatrogenic pain” (Dompe' Farmaceutici S.P.A., priority 2017, dated 2024).

How the values were obtained:
DRG neurons [1] = assay: Dendritic tree area of DRG neurons (image analysis); format: cell-based, Sprague Dawley rat; conditions: for % dendritic tree area: relative to UT
Experimental: (§1) Dorsal Root Ganglion neurons were obtained by dissociation of post natal (P2) Sprague Dawley rat ganglia (Envigo, Bresso Italy), following well-defined protocols (O'Meara et al, 2011; Owen et al, 2012). To minimize introduction of contaminating cells into the culture, any excessively long roots were trimmed from DRGs. After the isolation, DRGs were enzymatically dissociated as follows: • 20 minutes of 1.5 mg/ml papain exposure at 37° C., • 30 minutes of 4 mg/ml collagenase exposure at 37° C.
(§2) Subsequently, cells were mechanically dissociated with a fire polished glass Pasteur pipette, in order to obtain a single cell suspension.
(§3) Once dissociation was achieved, cells were seeded onto 96 black multiwell plates coated with Laminin (10 ug/mL, overnight at Room Temperature, RT) at selected densities. Following 1 week of incubation in DMEM high glucose medium supplemented with 10% FBS, 1× N2, 1× B27, 100 IU/mI penicillin, […] streptomycin, cells were treated according to experimental needs.
(§4) Alpha Tubulin Acetylation DRG-derived neurons were cultured for 7 days and then treated with:
(§5) • paclitaxel (200 nM, 500 nM, 1 μM and 5 μM, 20 μM) in presence or absence of DF3966Y (0.1, 1 and 10 μM) or DF2593A (0.1, 1 and 10 μM) • or C5a (500 ng/ml and 1 μg/ml) in presence or absence of DF3966Y (1 μM)
(§6) After 24 hr of treatment, cells were stained by immunofluorescence.
(§7) Cells were fixed with saccharose-paraformaldehyde then staining was performed overnight. Primary antibodies (anti—Ill Tubulin and anti-synaptotagmin 1) were diluted 1:500 in 1×PBS-4% BSA-2% Normal goat serum and 0.3% Triton x-100. The next day, cells were washed with 1×PBS-4% BSA and secondary antibodies were used diluted 1:500 in 1×PBS-4% BSA-2% Normal goat serum and 0.3% Triton x-100. After 1 hr of incubation, cells were washed with 1×PBS. Hoechst was used as a counterstain.
(§8) Sixteen images per well were taken with ArrayScan XTI HCA Reader (Thermo Fisher Scientific) with and 40× objective. All the analysis were done with HCS Studio software
Dendritic arborization directly influences synaptic genesis and input. A well-developed arborization indicates a functional synaptic network. For this reason, the area occupied by dendritic arborization has been quantified.
(§9) Data are obtained as the sum of the values obtained by the analysis of sixteen fields per well for each experiment. Percentage of the values in respect to the relative mean untreated group was calculated. Mean of the percentages from 4 separate experiments was plotted in the following Tables 2-7.

DRG neurons [2] = assay: Synapse number on DRG neurons (synaptotagmin staining, image analysis); format: cell-based, Sprague Dawley rat; conditions: for % of synapse number: relative to UT
Experimental: as §1, §2, §3, §4, §5, §6, §7, §8
For synapse count a threshold has been set, in particular all the objects, positive to synaptotagmin staining, in the range 0.365-2.457 μm^2 have been considered as synapses.
(§10) Cells number, synapse number and dentritic arborization were evaluated in untreated cells and in cells stimulated with paclitaxel and C5a alone or in presence of the drug. As marker of chemotherapy-induced toxicity, the total number of synapses on DRG neurons was quantitative evaluated as percentage of the number of synapse with respect to untreated (UT) control.
as §9

DRG neurons [3] = assay: Electrophysiological recordings (whole-cell patch-clamp, current-clamp) of DRG-derived neurons; format: cell-based, Sprague Dawley rat
Experimental: as §1
Dorsal Root Gangliar (DRG)-derived neurons were cultured for 7 days and then treated in blind with the following combinations: 10 nM Paclitaxel, 10 nM Paclitaxel+1 μM DF3966Y, 1 μg/ml C5a, 1 μg/ml C5a+1 μM DF3966Y.
The compounds were administered for 1 min 30 sec (short acute stimulation) or 5 minutes (long chronic stimulation). The application of the compounds was followed by a wash-out in the physiological control solution for an equivalent time (about 10 min).
Electrophysiological recordings were performed by the patch-clamp technique in the whole-cell configuration. The standard extracellr solution was bath applied and contained the following (mM): NaCl 135, KCl 2, CaCl2 2, MgCl2 2, hepes 10, glucose 5, pH 7.4. The standard pipet solution contained the following (mM): potassium aspartate 130, NaCl 10, MgCl2 2, CaCl2 1.3, EGTA 10, Hepes 10, pH 7.3. Recordings were acquired by the pClamp8.2 software and the MultiClamp 700A amplifier (Axon Instruments), in current-clamp mode.

acetylated α-Tubulin = assay: In-cell western analysis of acetylated α-Tubulin in DRG neurons; format: cell-based, Sprague Dawley rat; conditions: for Acetylated α-Tubulin (% of UT): DRG neurons
Experimental: as §1, §2, §3
Dorsal Root Ganglion neurons isolated as previously reported were subjected to the following experimental challenge scheme as depicted in FIG. 10.
Paclitaxel, C5a and drugs were administered 24 hr prior the in-cell western experiment. Following 24 hr of treatment with appropriate stimuli as previously indicated, cells were washed with 1×PBS and fixed with 3,7% formaldehyde for 15 min. After the removal of fixing solution, cells were washed with 1×PBS and permeabilized with 1×PBS-0,1% Triton X-100 for 5 min at RT. Cells were then stained over night at 4° C. with the anti-acetylated α-Tubulin antibody, diluted 1:500 in Odyssey Blocking buffer, following manufacturer's protocol.
The next day, cells were washed with 1×PBS-0.1% Tween20, and stained with the secondary antibody (diluted 1:800 in Odyssey Blocking buffer, as recommended by the protocol) and with the CellTag 700Stain […]. To lower the background, Tween20 at a final concentration of 0.2% was added to the Odyssey Blocking buffer. 96-well plates were then read at Odyssey CLx Imaging system and images acquired. Data analysis was carried out by the use of Image Studio 2.1 software.
Paclitaxel was given to the DRG neurons following 7 days of culture at the concentration of 200 nM (Scuteri et al. 2006).
Effect of DF3966Y in C5α-induced neuronal toxicity In order to determine whether the observed effects may be triggered also by C5a, recombinant mouse C5a 1 μg/ml (111.11 nM) was given to the DRG neurons after 7 days of culture in presence or absence of DF3966Y 1 μM.
After 24 hr of incubation, acetylated α-Tubulin was quantified using in-cell western technique, as previously described.

DRG neurons [4] = assay: Cells number of DRG neurons (immunofluorescence, image analysis); format: cell-based; conditions: for % of cell number: relative to UT
Experimental: as §1, §2, §3, §4, §5, §6, §7, §8, §10, §9

## CC(=O)O[C@H]1C(=O)[C@@]2(C)[C@H]([C@H](OC(=O)c3ccccc3)[C@]3(O)C[C@H](OC(=O)[C@H](O)[C@@H](NC(=O)c4ccccc4)c4ccccc4)C(C)=C1C3(C)C)[C@]1(OC(C)=O)CO[C@@H]1C[C@@H]2O [Paclitaxel, reference compound]
DRG neurons [1]; PAC alone (Table 6)
  % dendritic tree area: 92.22 ± 3.47%
DRG neurons [1]; Paclitaxel alone
  area occupied by dendritic arborization: non-significant decrease
DRG neurons [2]; PAC alone (Table 4)
  % of synapse number: 88.02 ± 2.99%
DRG neurons [2]; Paclitaxel alone
  effect on synapse number: marked decrease in synapse number
DRG neurons [3]; 10 nM Paclitaxel alone, immediate phase
  action potential firing rate vs CTRL, immediate: +54.64%
DRG neurons [3]; 10 nM Paclitaxel alone, longer times of exposure
  electrical activity vs CTRL, longer times of exposure: −83.51%
Acetylated α-Tubulin; Paclitaxel 200 nM alone
  change in acetylated α-Tubulin with respect to control (UT) cells: marginal yet significant increase
Acetylated α-Tubulin; Paclitaxel 200 nM alone, 24 hr
  Acetylated α-Tubulin (% of UT): 111.41 % of UT
DRG neurons [4]; Paclitaxel alone
  effect on cell number: slight decrease in cell number
DRG neurons [4]; Paclitaxel alone (Table 2)
  % of cell number: 88.87 ± 6.04%

## C[C@H](c1ccc(Nc2nc(C(F)(F)F)cs2)cc1)c1nnn[nH]1 [DF3966Y, 1-N-[4-[(1R)-1-(1H-tetrazol-5-yl)ethyl]phenyl}-4-(trifluoromethyl)-11,3-thiazol-2-amine]
DRG neurons [1]; DF3966Y 1 μM + C5a (Table 7)
  % dendritic tree area: 106.45 ± 9.43%
DRG neurons [1]; DF3966Y 1 μM + PAC (Table 6)
  % dendritic tree area: 101.21 ± 7.97%
DRG neurons [1]; DF3966Y 1 μM + paclitaxel
  effect on paclitaxel-induced decrease of dendritic arborization area: seems to counteract such a decrease
DRG neurons [1]; DF3966Y 1 μM alone (Table 6)
  % dendritic tree area: 103.07 ± 8.17%
DRG neurons [1]; DF3966Y 1 μM alone (Table 7)
  % dendritic tree area: 103.07 ± 8.17%
DRG neurons [2]; DF3966Y 1 μM + C5a (Table 5)
  % of synapse number: 111.33 ± 9.27%
DRG neurons [2]; DF3966Y 1 μM + PAC (Table 4)
  % of synapse number: 92.04 ± 21.01%
DRG neurons [2]; DF3966Y 1 μM + paclitaxel
  effect on Paclitaxel-induced decrease in synapse number: significantly counteracted Paclitaxel-induced effect
DRG neurons [2]; DF3966Y 1 μM alone (Table 4)
  % of synapse number: 99.89 ± 12.94%
DRG neurons [2]; DF3966Y 1 μM alone (Table 5)
  % of synapse number: 99.89 ± 12.94%
DRG neurons [3]; 10 nM Paclitaxel + 1 μM DF3966Y, first immediate phase and longer time of exposure
  alteration of electrical activity under Paclitaxel plus drug: no significant alteration of electrical activity
DRG neurons [3]; 1 μg/ml C5a + 1 μM DF3966Y, longer time of exposure (3-5 minutes)
  inhibition of electrical activity under C5a plus drug, longer time of exposure: about 35%
DRG neurons [3]; 1 μg/ml C5a + 1 μM DF3966Y, short time points
  alteration of electrical activity under C5a plus drug, short time points: no significant alteration of the electrical activity
Acetylated α-Tubulin; DF3966Y 1 μM + C5a 1 μg/ml, 24 hr
  levels of acetylated α-Tubulin under C5a plus drug: significantly reduced the challenge induced by C5a exposure
Acetylated α-Tubulin; drug 0.1 μM under Paclitaxel 200 nM, 24 hr
  Acetylated α-Tubulin (% of UT): 76.45 % of UT
Acetylated α-Tubulin; drug 1 μM under Paclitaxel 200 nM, 24 hr
  Acetylated α-Tubulin (% of UT): 65.16 % of UT
Acetylated α-Tubulin; drug 10 μM under Paclitaxel 200 nM, 24 hr
  Acetylated α-Tubulin (% of UT): 89.05 % of UT
Acetylated α-Tubulin; drug 0.1, 1, 10 μM, Paclitaxel 200 nM
  reversal of Paclitaxel-induced increase in acetylated α-Tubulin: significantly reverted the Paclitaxel-induced challenge
DRG neurons [4]; DF3966Y 1 μM + C5a (Table 3)
  % of cell number: 96.65 ± 10.77%
DRG neurons [4]; DF3966Y 1 μM + PAC (Table 2)
  % of cell number: 98.83 ± 12.49%
DRG neurons [4]; DF3966Y 1 μM alone (Table 2)
  % of cell number: 101.55 ± 10.59%
DRG neurons [4]; DF3966Y 1 μM alone (Table 3)
  % of cell number: 96.96 ± 6.45%
DRG neurons [4]; DF3966Y administered alone or with PAC
  effect on cell number: did not exert any significant effect on cell number
